# Target: T1, baculovirus-expressed ALK (Homo sapiens, UniProt Q9UM73)
# T1 construct: host or cells: baculovirus expression system
# Test: ALK Kinase Assay (ELISA-type, time-resolved fluorescence)
# Assay type: biochemical
# Details: 1 μM ATP (Km level), 30 ng/ml ALK, 37° C., 15 minutes; read-out: ALK Activity (ALK kinase inhibition, IC50 class)
# Experimental: Briefly, each 96-well plate was coated with 100 μL/well of 10 μg/mL substrate (phospholipase C-γ) in Tris-buffered saline (TBS). […] The reaction was initiated by adding enzyme (30 ng/ml ALK) and was allowed to proceed at 37° C. for 15 minutes. Detection of the phosphorylated product was performed by adding 100 μl/well of Eu-N1 labeled PT66 antibody (Perkin Elmer # AD0041).
# Data analysis was performed using ActivityBase (IDBS, Guilford, UK). IC50 values were calculated by plotting percent inhibition versus log10 of the concentration of compound and fitting to the nonlinear regression sigmoidal dose-response (variable slope) equation in XLFit (IDBS, Guilford, UK).
# T1 sequence (Q9UM73 19-1620): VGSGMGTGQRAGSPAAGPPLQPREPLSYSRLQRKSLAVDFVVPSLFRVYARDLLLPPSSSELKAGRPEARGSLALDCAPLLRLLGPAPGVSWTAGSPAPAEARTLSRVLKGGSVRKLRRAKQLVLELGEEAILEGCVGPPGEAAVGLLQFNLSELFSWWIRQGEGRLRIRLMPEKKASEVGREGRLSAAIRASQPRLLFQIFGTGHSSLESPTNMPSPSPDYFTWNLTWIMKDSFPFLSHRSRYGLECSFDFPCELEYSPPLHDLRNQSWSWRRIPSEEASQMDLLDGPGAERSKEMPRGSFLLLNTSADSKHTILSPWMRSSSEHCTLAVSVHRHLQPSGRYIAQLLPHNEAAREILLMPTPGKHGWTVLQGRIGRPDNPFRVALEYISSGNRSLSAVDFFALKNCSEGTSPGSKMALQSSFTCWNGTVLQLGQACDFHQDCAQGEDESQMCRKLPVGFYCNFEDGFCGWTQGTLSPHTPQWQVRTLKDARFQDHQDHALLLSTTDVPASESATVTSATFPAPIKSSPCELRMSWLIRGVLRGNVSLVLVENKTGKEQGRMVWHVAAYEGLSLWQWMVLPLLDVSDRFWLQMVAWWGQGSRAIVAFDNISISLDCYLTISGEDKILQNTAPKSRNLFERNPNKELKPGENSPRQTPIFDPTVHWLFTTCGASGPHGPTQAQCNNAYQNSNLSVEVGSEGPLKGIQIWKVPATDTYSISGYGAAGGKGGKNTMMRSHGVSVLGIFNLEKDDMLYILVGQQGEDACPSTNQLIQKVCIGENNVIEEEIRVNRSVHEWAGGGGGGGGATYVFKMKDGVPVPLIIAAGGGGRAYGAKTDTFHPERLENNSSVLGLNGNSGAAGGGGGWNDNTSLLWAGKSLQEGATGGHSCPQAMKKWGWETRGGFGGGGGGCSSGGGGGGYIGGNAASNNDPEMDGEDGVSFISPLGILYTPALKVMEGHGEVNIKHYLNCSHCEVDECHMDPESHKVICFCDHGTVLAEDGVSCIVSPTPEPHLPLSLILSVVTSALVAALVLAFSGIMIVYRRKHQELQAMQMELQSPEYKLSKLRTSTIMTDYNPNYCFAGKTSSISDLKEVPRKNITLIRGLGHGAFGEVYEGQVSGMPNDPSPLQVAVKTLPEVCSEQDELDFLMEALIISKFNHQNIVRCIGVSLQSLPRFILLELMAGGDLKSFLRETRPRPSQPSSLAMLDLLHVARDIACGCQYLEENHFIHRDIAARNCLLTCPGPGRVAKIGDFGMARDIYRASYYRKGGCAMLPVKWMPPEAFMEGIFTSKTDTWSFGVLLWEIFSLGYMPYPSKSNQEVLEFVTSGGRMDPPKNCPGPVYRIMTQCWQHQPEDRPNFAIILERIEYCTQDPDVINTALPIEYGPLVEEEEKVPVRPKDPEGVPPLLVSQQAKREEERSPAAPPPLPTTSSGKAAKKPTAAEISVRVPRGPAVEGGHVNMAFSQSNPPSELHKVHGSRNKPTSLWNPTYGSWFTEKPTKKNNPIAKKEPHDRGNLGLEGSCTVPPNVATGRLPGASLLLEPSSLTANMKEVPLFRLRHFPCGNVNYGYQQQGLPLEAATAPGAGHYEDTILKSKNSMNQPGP
row,Compound,IC50 [nM]
1,"CNC(=O)c1cccc(F)c1Nc1nc(Nc2ccc3c(c2)NC(=O)C(N)CC3(C)C)ncc1Cl (stereo not shown) [Example 1272, 2-[2-(3-Amino-5,5-dimethyl-2-oxo-2,3,4,5-tetrahydro-1H-1-benzazepin-8-ylamino)-5-chloro-pyrimidin-4-ylamino]-3-fluoro-N-methyl-benzamide]",< 100
2,"CNC(=O)c1cccc(F)c1Nc1nc(Nc2ccc3c(c2)NC(=O)C(NC(C)=O)CC3(C)C)ncc1Cl (stereo not shown) [Example 1289, 2-[2-(3-Acetylamino-5,5-dimethyl-2-oxo-2,3,4,5-tetrahydro-1H-1-benzazepin-8-ylamino)-5-chloro-pyrimidin-4-ylamino]-3-fluoro-N-methyl-benzamide]",100 to 1000
3,"CNC(=O)c1cccc(F)c1Nc1nc(Nc2ccc3c(c2)NC(=O)CCC3)ncc1Cl [Example 1375, 2-[5-Chloro-2-(2-oxo-2,3,4,5-tetrahydro-1H-benzo[b]azepin-8-ylamino)-pyrimidin-4-ylamino]-3-fluoro-N-methyl-benzamide]",100 to 1000
4,"CNC(=O)c1cccc(F)c1Nc1nc(Nc2ccc3c(c2)NC(=O)C(NC(=O)OC)CC3(C)C)ncc1Cl (stereo not shown) [Example 1299, {8-[5-Chloro-4-(2-fluoro-6-methylcarbamoyl-phenylamino)-pyrimidin-2-ylamino]-5,5-dimethyl-2-oxo-2,3,4,5-tetrahydro-1H-1-benzazepin-3-yl}-carbamic acid methyl ester]",100 to 1000
5,"CCCCNC(=O)c1ccccc1Nc1nc(Nc2ccc3c(c2)CCCC(=O)N3C)ncc1Cl [Example 1030, N-Butyl-2-[5-chloro-2-(1-methyl-2-oxo-2,3,4,5-tetrahydro-1H-benzo[b]azepin-7-ylamino)-pyrimidin-4-ylamino]-benzamide]",< 100
6,"CCCNC(=O)c1ccccc1Nc1nc(Nc2ccc3c(c2)CCCC(=O)N3C)ncc1Cl [Example 1025, 2-[5-Chloro-2-(1-methyl-2-oxo-2,3,4,5-tetrahydro-1H-benzo[b]azepin-7-ylamino)-pyrimidin-4-ylamino]-N-propyl-benzamide]",< 100
7,"CNC(=O)c1cccc(F)c1Nc1nc(Nc2ccc3c(c2)NC(=O)C(NC(=O)N2CCCC2)CC3(C)C)ncc1Cl (stereo not shown) [Example 1295, Pyrrolidine-1-carboxylic acid {8-[5-chloro-4-(2-fluoro-6-methylcarbamoyl-phenylamino)-pyrimidin-2-ylamino]-5,5-dimethyl-2-oxo-2,3,4,5-tetrahydro-1H-1-benzazepin-3-yl}-amide]",100 to 1000

# The next lines start with the values.
row,IC50 [nM],Compound
1,100 to 1000,"CNC(=O)c1cccc(F)c1Nc1nc(Nc2ccc3c(c2)OCCCN3C(=O)OCCCN(C)C)ncc1Cl [Example 1426, 3-[5-Chloro-4-(2-fluoro-6-methylcarbamoyl-phenylamino)-pyrimidin-2-ylamino]-7,8-dihydro-6H-5-oxa-9-aza-benzocycloheptene-9-carboxylic acid 3-dimethylamino-propyl ester]"
2,< 100,"C#CCNC(=O)c1ccccc1Nc1nc(Nc2ccc3c(c2)CCCC(=O)N3C)ncc1Cl [Example 1388, 2-[5-Chloro-2-(1-methyl-2-oxo-2,3,4,5-tetrahydro-1H-benzo[b]azepin-7-ylamino)-pyrimidin-4-ylamino]-N-prop-2-ynyl-benzamide]"
3,100 to 1000,"CCOC(=O)N1CCCOc2cc(Nc3ncc(Cl)c(Nc4c(F)cccc4C(=O)NC)n3)ccc21 [Example 1417, 3-[5-Chloro-4-(2-fluoro-6-methylcarbamoyl-phenylamino)-pyrimidin-2-ylamino]-7,8-dihydro-6H-5-oxa-9-aza-benzocycloheptene-9-carboxylic acid ethyl ester]"
4,100 to 1000,"CCOC(=O)N1CCCOc2ccc(Nc3ncc(Cl)c(Nc4c(F)cccc4C(=O)NC)n3)cc21 [Example 1410, 2-[5-Chloro-4-(2-fluoro-6-methylcarbamoyl-phenylamino)-pyrimidin-2-ylamino]-7,8-dihydro-6H-5-oxa-9-aza-benzocycloheptene-9-carboxylic acid ethyl ester]"

# Same assay, conditions: ALK kinase inhibition, 1 μM ATP (Km level); read-out: ALK Activity
row,IC50 [nM],Compound
1,< 100,"CNC(=O)c1cccc(F)c1Nc1nc(Nc2ccc3c(c2)C(C)(C)CCC(=O)N3)ncc1Cl [Example 396, 2-[5-Chloro-2-(5,5-dimethyl-2-oxo-2,3,4,5-tetrahydro-1H-benzo[b]azepin-7-ylamino)-pyrimidin-4-ylamino]-3-fluoro-N-methyl-benzamide]"
2,100 to 1000,"CNC(=O)c1cccc(C)c1Nc1nc(Nc2ccc3c(c2)CCN(CCOC)CC3)ncc1Cl [Example 313, 2-{5-Chloro-2-[3-(2-methoxy-ethyl)-2,3,4,5-tetrahydro-1H-benzo[d]azepin-7-ylamino]-pyrimidin-4-ylamino}-3,N-dimethyl-benzamide]"
3,< 100,"CNC(=O)c1ccccc1Nc1nc(Nc2ccc3c(c2)CCN(CCOC)CC3)ncc1Cl [Example 34, 2-{5-Chloro-2-[3-(2-methoxy-ethyl)-2,3,4,5-tetrahydro-1H-benzo[d]azepin-7-ylamino]-pyrimidin-4-ylamino}-N-methyl-benzamide]"
4,< 100,"CN1C(=O)CCCc2cc(Nc3ncc(Cl)c(Nc4ccccc4C(N)=O)n3)ccc21 [Example 7, 2-[5-Chloro-2-(1-methyl-2-oxo-2,3,4,5-tetrahydro-1H-benzo[b]azepin-7-ylamino)-pyrimidin-4-ylamino]-benzamide]"
5,< 100,"CNC(=O)c1cccc(F)c1Nc1nc(Nc2ccc3c(c2)CCN(CCOC)CC3)ncc1Cl [Example 311, 2-{5-Chloro-2-[3-(2-methoxy-ethyl)-2,3,4,5-tetrahydro-1H-benzo[d]azepin-7-ylamino]-pyrimidine-4-ylamino}-3-fluoro-N-methyl-benzamide]"
6,100 to 1000,"CNC(=O)c1cccc(Cl)c1Nc1nc(Nc2ccc3c(c2)C(C)(C)CCC(=O)N3)ncc1Cl [Example 382, 3-Chloro-2-[5-chloro-2-(5,5-dimethyl-2-oxo-2,3,4,5-tetrahydro-1H-benzo[b]azepin-7-ylamino)-pyrimidin-4-ylamino]-N-methyl-benzamide]"
7,100 to 1000,"CNC(=O)c1cccc(C)c1Nc1nc(Nc2ccc3c(c2)C(C)(C)CCC(=O)N3)ncc1Cl [Example 399, 2-[5-Chloro-2-(5,5-dimethyl-2-oxo-2,3,4,5-tetrahydro-1H-benzo[b]azepin-7-ylamino)-pyrimidin-4-ylamino]-3,N-dimethyl-benzamide]"
8,< 100,"CNC(=O)c1cccc(F)c1Nc1nc(Nc2ccc3c(c2)N(CCOC)C(=O)CCC3)ncc1Cl [Example 362, 2-{5-Chloro-2-[1-(2-methoxy-ethyl)-2-oxo-2,3,4,5-tetrahydro-1H-benzo[b]azepin-8-ylamino]-pyrimidin-4-ylamino}-3-fluoro-N-methyl-benzamide]"

# Same assay, conditions: ALK kinase inhibition, 1 μM ATP; read-out: ALK Activity
row,IC50 [nM],Compound
1,100 to 1000,"CNC(=O)c1cccc(F)c1Nc1nc(Nc2ccc3c(c2)OCCCN3C(=O)CN2CCCC2)ncc1Cl [Example 1714, 2-{5-Chloro-2-[9-(2-pyrrolidin-1-yl-acetyl)-6,7,8,9-tetrahydro-5-oxa-9-aza-benzocyclohepten-3-ylamino]-pyrimidin-4-ylamino}-3-fluoro-N-methyl-benzamide]"
2,< 100,"CNC(=O)c1cccc(F)c1Nc1nc(Nc2ccc3c(c2)OCCCN3CCN2CCCC2)ncc1Cl [Example 1718, 2-{5-Chloro-2-[9-(2-pyrrolidin-1-yl-ethyl)-6,7,8,9-tetrahydro-5-oxa-9-aza-benzocyclohepten-3-ylamino]-pyrimidin-4-ylamino}-3-fluoro-N-methyl-benzamide]"
3,< 100,"CCN1C(=O)CCC(C)(C)c2ccc(Nc3ncc(Cl)c(Nc4c(F)cccc4C(=O)NC)n3)cc21 [Example 1576, 2-[5-Chloro-2-(1-ethyl-5,5-dimethyl-2-oxo-2,3,4,5-tetrahydro-1H-benzo[b]azepin-8-ylamino)-pyrimidin-4-ylamino]-3-fluoro-N-methyl-benzamide]"
4,100 to 1000,"CNC(=O)c1cccc(F)c1Nc1nc(Nc2ccc3c(c2)NC(=O)CCC3(C)C)ncc1Cl [Example 1574, 2-[5-Chloro-2-(5,5-dimethyl-2-oxo-2,3,4,5-tetrahydro-1H-benzo[b]azepin-8-ylamino)-pyrimidin-4-ylamino]-3-fluoro-N-methyl-benzamide]"
5,< 100,"CNC(=O)c1cccc(F)c1Nc1nc(Nc2ccc3c(c2)N(CCOC)C(=O)CCC3(C)C)ncc1Cl [Example 1581, 2-{5-Chloro-2-[1-(2-methoxy-ethyl)-5,5-dimethyl-2-oxo-2,3,4,5-tetrahydro-1H-benzo[b]azepin-8-ylamino]-pyrimidin-4-ylamino}-3-fluoro-N-methyl-benzamide]"
6,100 to 1000,"CNC(=O)c1cccc(F)c1Nc1nc(Nc2ccc3c(c2)N(C(C)=O)CCCO3)ncc1Cl [Example 1701, 2-[2-(9-Acetyl-6,7,8,9-tetrahydro-5-oxa-9-aza-benzocyclohepten-2-ylamino)-5-chloro-pyrimidin-4-ylamino]-3-fluoro-N-methyl-benzamide]"
7,< 100,"CCN1CCCOc2cc(Nc3ncc(Cl)c(Nc4c(F)cccc4C(=O)NC)n3)ccc21 [Example 1692, 2-[5-Chloro-2-(9-ethyl-6,7,8,9-tetrahydro-5-oxa-9-aza-benzocyclohepten-3-ylamino)-pyrimidin-4-ylamino]-3-fluoro-N-methyl-benzamide]"
8,< 100,"CNC(=O)c1cccc(F)c1Nc1nc(Nc2ccc3c(c2)N(C(C)C)C(=O)CCC3(C)C)ncc1Cl [Example 1588, 2-[5-Chloro-2-(1-isopropyl-5,5-dimethyl-2-oxo-2,3,4,5-tetrahydro-1H-benzo[b]azepin-8-ylamino)-pyrimidin-4-ylamino]-3-fluoro-N-methyl-benzamide]"
9,100 to 1000,"CCN1CCCOc2ccc(Nc3ncc(Cl)c(Nc4c(F)cccc4C(=O)NC)n3)cc21 [Example 1697, 2-[5-Chloro-2-(9-ethyl-6,7,8,9-tetrahydro-5-oxa-9-aza-benzocyclohepten-2-ylamino)-pyrimidin-4-ylamino]-3-fluoro-N-methyl-benzamide]"

# — patent publication US8148391B2 (Cephalon, Inc., priority 2006, dated 2012)
